Measurements from patent US20050090551A1, “Therapeutic use of methionine for the treatment or prevention of mucositis” (Board of Trustees of Southern Illinois University, priority 2003, published 2005).
Counter-ions that a name gives are not always drawn.

Tests used:
[1] = tested on: NHIK 3025 in vitro human uterine cervix carcinoma in situ cancer cells; conditions: preadministration of methionine, presumably a racemic mixture; cited from earlier work
CDDP nephrotoxicity = conditions: literature reports; cited from earlier work
CDDP-induced weight loss = conditions: literature reports; cited from earlier work
[2] = tested on: Walker 256 carcinosarcoma in the rat; conditions: Jones and Basinger; cited from earlier work
male Wistar rats [3] = tested on: male Wistar rats
CDDP anti-tumor action = conditions: literature reports; cited from earlier work
male Wistar rats [4] = conditions: 75, 150 or 300 mg/kg D-methionine prior to 16 mg/kg CDDP
tumor bearing animals = conditions: pre or post treatment, 150 mg/Kg x5, i.p.
male Wistar rats [5] = assay: Auditory Brainstem Testing (ABR) thresholds in CDDP-treated rats; type: in vivo, rat
mice = conditions: 6 Gy/day for five days
Experimental: The experiment was conducted using a mouse model of radiation-induced lip erythema. Four groups of mice (n=5) were used. The first group (Group A) was an untreated, control group. The second group (Group B) was irradiated with ionizing radiation (6 Gy/day) for 5 days.

[6] = tested on: Human salivary gland epithelial cells; conditions: various concentrations of D-methionine (1.0-0.1 mg/ml) six hours prior to 10 Gy; after 24 Hrs
Text: One set was untreated as a control and another was irradiated with 10 Gy the following morning.

male Wistar rats [7] = tested on: male Wistar rats; remark: listed apart in the source
CDDP ototoxicity = conditions: animals; literature reports; cited from earlier work
hamsters = conditions: Church et al; cited from earlier work
patients = conditions: cited from earlier work

## CSCC[C@H](N)C(=O)O (racemic) [methionine]
[1]
  effect on CDDP cytotoxicity: sensitized

## CC1(C)S[C@@H]2[C@H](NC(=O)Cc3ccccc3)C(=O)N2[C@H]1C(=O)[O-].[Na+] [sodium salt of penicillin G, penicillin G]
CDDP nephrotoxicity
  CDDP nephroprotection: does not protect against CDDP nephrotoxicity or weight loss
CDDP-induced weight loss
  protection against CDDP-induced weight loss: does not protect against CDDP nephrotoxicity or weight loss

## Nc1ccc(S(=O)(=O)Nc2nccs2)cc1 [Sulfathiazole]
CDDP nephrotoxicity
  CDDP nephroprotection: provides protection against CDDP nephrotoxicity
CDDP-induced weight loss
  protection against CDDP-induced weight loss: not weight loss

## CSCC[C@@H](N)C(=O)O [D-methionine]
[2]
  effect on CDDP anti-tumor action: does not inhibit CDDP anti-tumor action
Male Wistar rats [3]; 300 mg/kg D-methionine prior to 16 mg/kg CDDP, 3 days
  weight loss vs treated control group: significantly less than that in the treated control group
Male Wistar rats [3]; 75, 150, 300 mg/kg D-methionine prior to 16 mg/kg CDDP
  CDDP-induced weight loss, dose dependence: diminished as D-methionine dosing increased
CDDP anti-tumor action
  effect on CDDP anti-tumor action: without decreasing anti-tumor action
Male Wistar rats [4]
  outer hair cell findings, middle and basal turns: only the treated control group showed significantly different findings from the untreated control group
Tumor bearing animals
  interference with antitumor activity of ionizing radiation: did not interfere with antitumor activity of ionizing radiation
Male Wistar rats [5]; 75 mg/kg D-methionine i.p. 30 minutes prior to 16 mg/kg CDDP, 3 days later
  animals with complete otoprotection (no significant ABR threshold shift for any stimulus): 2/5
Male Wistar rats [5]; 150 mg/kg D-methionine i.p. 30 minutes prior to 16 mg/kg CDDP, 3 days later
  animals with complete otoprotection (no significant ABR threshold shift for any stimulus): 3/5
Male Wistar rats [5]; 300 mg/kg D-methionine i.p. 30 minutes prior to 16 mg/kg CDDP, group of 5, 3 days later
  animals with complete otoprotection for all stimulus conditions: 5
Male Wistar rats [5]; any level of D-methionine (75, 150, 300 mg/kg) prior to 16 mg/kg CDDP
  post-test ABR thresholds vs treated control group, all stimuli: significantly lower ABR thresholds than the treated control group
CDDP nephrotoxicity
  CDDP nephroprotection: highly effective CDDP nephroprotection
mice; 150 mg/kg one hour after irradiation
  lip erythema, post-treatment: prevented the occurrence of lip erythema
mice; 150 mg/kg six hours prior to irradiation
  lip erythema, pre-treatment: prevented the occurrence of lip erythema
[6]
  apoptosis (cells having an apoptotic phenotype): about 20%
Male Wistar rats [7]; D-methionine prior to 16 mg/kg CDDP
  alopecia: coat and hair loss vs control group animals: significantly less hair loss
Male Wistar rats [7]; any level of D-methionine prior to 16 mg/kg CDDP
  animals surviving to the end of the study period: 15/15
Male Wistar rats [7]; morning of the third day, D-methionine prior to 16 mg/kg CDDP
  neuroprotection: activity and coordination vs surviving treated controls: noticeably more lively, active, and coordinated

## CSCC[C@H](N)C(N)=O [L-methioninamide]
CDDP anti-tumor action
  effect on CDDP anti-tumor action: impairs CDDP anti-tumor action
CDDP nephrotoxicity
  CDDP nephroprotection: excellent CDDP nephroprotection

## O=S([O-])([O-])=S.[Na+].[Na+] [STS, sodium thiosulfate]
CDDP anti-tumor action
  effect on CDDP anti-tumor action: reduces the latter's tumoricidal action
CDDP nephrotoxicity
  CDDP nephroprotection: reduces CDDP nephrotoxicity and ototoxicity
CDDP ototoxicity
  CDDP otoprotection: good CDDP otoprotection

## CO[C@@]1(NC(=O)Cc2cccs2)C(=O)N2C(C(=O)O)=C(COC(N)=O)CS[C@@H]21 [cefoxitin]
CDDP nephrotoxicity
  CDDP nephroprotection: does not provide nephroprotection
CDDP-induced weight loss
  protection against CDDP-induced weight loss: some protection against CDDP-induced weight loss

## NCCCNCCSP(=O)(O)O [WR2721]
hamsters
  protection from ototoxicity or mortality: no WR2721 protection from ototoxicity or mortality
CDDP nephrotoxicity
  CDDP nephroprotection: excellent CDDP nephroprotection
patients; WR2721 prior to CDDP, Glover et al.
  patients with mild to severe hearing loss: 20 of 36
patients; patients pretreated with WR2721 prior to CDDP, Rubin et al.
  incidence of significant hearing threshold shift: 45%

## CC(S)C(=O)NCC(=O)O (stereo not drawn) [N-(2-mercapto-propionyl)glycine]
CDDP nephrotoxicity
  CDDP nephroprotection: exacerbate CDDP nephrotoxicity

## CCOC(=O)[C@@H](N)CS [Ethyl-L-cysteinate]
CDDP nephrotoxicity
  CDDP nephroprotection: exacerbate CDDP nephrotoxicity

## O=C(O)CCCC[C@@H]1SC[C@@H]2NC(=O)N[C@@H]21 [Biotin]
CDDP anti-tumor action
  effect on CDDP anti-tumor action: inhibits anti-tumor activity
CDDP nephrotoxicity
  CDDP nephroprotection: good CDDP nephroprotection

## CC1=C(C(=O)O)N2C(=O)[C@@H](NC(=O)[C@H](N)c3ccccc3)[C@H]2SC1 [Cephalexin]
CDDP-induced weight loss
  protection against CDDP-induced weight loss: protects against CDDP-induced kidney dysfunction and weight loss

## CSc1ncccc1C(=O)O [2-(methylthio)nicotinic acid]
CDDP nephrotoxicity
  CDDP nephroprotection: does not provide nephroprotection

## C[C@H](CS)C(=O)N1CCC[C@H]1C(=O)O [Captropril]
CDDP nephrotoxicity
  CDDP nephroprotection: protects against CDDP nephrotoxicity

## Cc1ncc(C[n+]2csc(CCO)c2C)c(N)n1 [thiamine-HCl]
CDDP nephrotoxicity
  CDDP nephroprotection: does not protect against cisplatin nephrotoxicity or weight loss
CDDP-induced weight loss
  protection against CDDP-induced weight loss: does not protect against cisplatin nephrotoxicity or weight loss
